From article PMC9623576, “Semisynthesis and Evaluation of Anti-Inflammatory Activity of the Cassane-Type Diterpenoid Taepeenin F and of Some Synthetic Intermediates” (Journal of Natural Products, 2022)

Tests used:
[1] = test system: LPS-stimulated RAW 264.7 macrophage murine cells; assay: RAW 264.7 cell-cycle distribution, PI flow cytometry; format: cell-based; details: for effect on cell-cycle arrest induced by LPS: 72 h of treatment
Description: Since the anti-inflammatory effect can be related to the ability to change the inflammatory processes induced by LPS in RAW 264.7 cells, including monocyte/macrophage cell differentiation and cell-cycle arrest,[22] we analyzed the cell-cycle distribution in these cells in response to LPS and compounds 16 and 21. The two compounds with the highest antiproliferative and important NO inhibitory effects were selected for this assay. For this purpose, flow cytometry by propidium iodide (PI) staining was used to measure DNA ploidy as well as the distribution of cells in every phase of the cell cycle (Figure S2).
A stock solution was frozen and stored at […]. Before the experiments, this solution was diluted in cell-culture medium to the adequate concentrations for each experiment. For the antiproliferative assay in all cell lines, we determined the concentrations of compounds required for 20, 50, and 80% of inhibition cell growth, IC20, IC50, and IC80, concentrations, respectively, to analyze the complete range of cytotoxicity and to determine the graduated or acute response to these compounds. For nitrite assay, subcytotoxic concentrations (3/4IC50, 1/2IC50, and 1/4IC50), were used to ensure that the NO inhibitory potential was not due to a possible cytotoxic effect. The concentrations of 3/4IC50, 1/2IC50, and 1/4IC50 were used for the cell-cycle analysis. All experiments were measured and compared with control (untreated cells after 24, 48, or 72 h of treatment.)
Cellular subpopulations, with different DNA contents, were visualized, using a fluorescence-activated cell sorter (FACS) at 488 nm in an Epics XL flow cytometer (Coulter Corporation, Hialeah, FL, USA). Changes in DNA levels are characteristic of cell-cycle arrest and cell differentiation.[36] […] Several controls were analyzed in parallel. […] Data were analyzed to determine the percentage of cells in each cell-cycle phase (G0/G1, S, and G2/M).

[2] = test system: HepG2 human hepatocarcinoma cells; assay: MTT cancer cell proliferation assay, HepG2; format: cell-based; details: Homo sapiens, HepG2, 72 h, MTT; for IC50: read-out: IC50; for IC20: read-out: IC20
Description: The five newly synthesized diterpenoids were evaluated for their cytotoxic effects against three selected tumor cell lines, B16-F10 murine melanoma cells, HT29 human colon adenocarcinoma cells, and HepG2 human hepatocarcinoma cells at increasing concentrations (0–100 μg/mL). After 72 h of treatment, cell viability was determined by an MTT assay, where the tetrazolium dye was transformed into formazan in the mitochondria of viable cells, its absorbance measured at 570 nm and expressed as a percentage with respect to untreated control cells (S3 Figure.). The concentrations required for 20, 50, and for 80% growth inhibition (IC20, IC50, and IC80) were also determined for each compound (Table 2).
A stock solution was frozen and stored at […]. Before the experiments, this solution was diluted in cell-culture medium to the adequate concentrations for each experiment. […] For nitrite assay, subcytotoxic concentrations (3/4IC50, 1/2IC50, and 1/4IC50), were used to ensure that the NO inhibitory potential was not due to a possible cytotoxic effect. The concentrations of 3/4IC50, 1/2IC50, and 1/4IC50 were used for the cell-cycle analysis. All experiments were measured and compared with control (untreated cells after 24, 48, or 72 h of treatment.)
Human colorectal adenocarcinoma cell line HT29 (ECACC no. 9172201; ATCC no. HTB-38), human hepatocarcinome cell line HepG2 (ECACC no. 85011430), mouse melanoma cells B16-F10 (ATCC no. CRL-6475), and murine monocyte/macrophage-like RAW 264.7 cell line (ATCC no, TIB-71) were cultured in DMEM (Dulbecco’s modified Eagle’s medium) supplemented with 2 mM glutamine, 10% heat-inactivated FCS (fetal calf serum), 10 000 units/mL of penicillin and 10 mg/mL of streptomycin, (for all cancer cell lines), 50 μg/mL of gentamicin (only for RAW 264.7 cell line), and incubated at 37 °C, in an atmosphere of 5% CO2 and 95% humidity. The culture media were changed every 48 h, and the confluent cultures were separated with a trypsin solution (0.25% EDTA). In all experiments, monolayer cells were grown to 80–90% confluence, in sterile cell culture flasks. All cell lines used were purchased from the cell bank of the University of Granada, Spain.
The cytotoxicity assay was performed by the MTT (3-(4,5-dimethylthiazol-2-yl)-2,5-diphenyltetrazolium bromide) method.[21] To quantify the cytotoxicity of compounds, the fresh and suspended cells were seeded in 96-well plates to a volume of 100 μL at 6.0 × 10^3 cells/mL for HT29 and RAW 264.7 cell lines, at 5.0 × 10^3 cells/mL for B16-F10 cells and 15.0 × 10^3 for Hep G2. Then, cells were incubated to adhere over 24 h at 37 °C with 5% CO2. All tested compounds were prepared in fresh growth medium. After 24 h, an additional 100 μL of medium with the corresponding concentrations of products (only medium in the control wells) was added to the corresponding wells, at various final concentrations (0–100 μg/mL). Finally, after 72 h of incubation at 37 °C with 5% CO2, the medium with the compounds were removed and 100 μL of MTT solution (0.5 mg/mL) in 50% of PBS 50% of medium was added to each well. After 1.5 h of incubation, formazan was resuspended in 100 μL of DMSO, and each concentration was tested in triplicate. Relative cell viability, with respect to untreated control cells, was measured by absorbance at 570 nm on an ELISA plate reader (Tecan Sunrise MR20-301, TECAN, Austria).
Cytotoxicity experimental data were fitted to a sigmoidal function (y = ymax/(x/a)^−b) by nonlinear regression. […] These analyses were performed using SigmaPlot 12.5 software. Similar analyses were performed to obtain the IC50 of NO production. All data shown here are representative of at least two independent experiments performed in triplicate. All quantitative data were summarized as the mean ± standard deviation (SD).

| SMILES | effect on cell-cycle arrest induced by LPS [1] | proportion of cells in the S phase ([1]; LPS + compound, 72 h, 1/4IC50 to 3/4IC50, with respect to positive control) | IC50 [2] | IC20 [2] | IC80 [2] |
| --- | --- | --- | --- | --- | --- |
| COC(=O)[C@]1(C)CCC[C@@]2(C)[C@H]1CC=C1C(C)=C(C(C)C)C(=O)C[C@@H]12 [Compound 16, (1R,4aR,10aR)-Methyl 7-isopropyl-1,4a,8-trimethyl-6-oxo-1,2,3,4,4a,4b,5,6,10,10a-decahydrophenanthrene-1-carboxylate] | could revert the cell-cycle arrest induced by LPS | 69% | 18.5 ± 4.73 µM | 5.05 ± 2.74 µM |  |
| COC(=O)[C@]1(C)CCC[C@]2(C)c3cc(O)c(C=O)c(C)c3CC[C@@H]12 [Compound 21, (1R,4aS,10aR)-Methyl 7-formyl-6-hydroxy-1,4a,8-trimethyl-1,2,3,4,4a,9,10,10a-octahydrophenanthrene-1-carboxylate] | could revert the cell-cycle arrest induced by LPS |  | 37.9 ± 5.4 µM | 33.2 ± 8.64 µM | 45.3 ± 0.9 µM |
